Source: patent publication US20210000988A1, “PHARMACEUTICAL COMPOSITION CONTAINING 211AT-LABELED AMINO ACID DERIVATIVE, AND METHOD FOR PRODUCING SAID PHARMACEUTICAL COMPOSITION” (OSAKA UNIVERSITY, priority 2018, published 2021)

Tests used:
[1] = system: Melanoma cells B16F10; assay: Treatment effect on melanoma metastasis to lung (nodule count and body weight); assay type: in vivo, C57BL/6 mice; settings: B16F10 transplanted mice, intravenous
Source text: C57BL/6 mice (female, 5 weeks old) purchased from Japan SLC, Inc. were used in the experiment after being acclimated in a breeding space for one week. Melanoma cells B16F10 (a high lung-metastatic cell line cloned from B16, RIKEN cell bank) were maintained in a D-MEM medium (high glucose, Sigma-Aldrich) supplemented with 10% fetal bovine serum (Gibco) and 1% antibiotics (100×, FUJIFILM Wako Pure Chemical Corp.). These cells in an amount of 2×10^5 cells were intravenously transplanted in each mouse. On the following day, the mice (N=5) was intravenously injected with ^211At-AAMT (with 1% ascorbic acid) at a dose of 0.0 MBq (control group), 0.1 MBq, or 1 MBq. Fourteen days later, the mice were dissected, and the number of nodules spread to the lung was visually counted. The results of the number of the nodules and a change in the body weight thus obtained were shown in FIG. 11 and FIG. 12, respectively.

[2] = Effect of ascorbic acid on biodistribution in normal mice (organ radioactivity, gamma counter); assay type: in vivo, ddY mice; settings: intravenous, one hour, 1% ascorbic acid addition group compared with ascorbic acid free group
Source text: Next, an effect of ascorbic acid on biodistribution of ^211At-AAMT in the mouse body was compared. ddY mice (male, 5 weeks old) purchased from Japan SLC, Inc. were used after being acclimated for one week (6 weeks old at the time of experiment). ^211At-AAMT with 1% ascorbic acid or without ascorbic acid was intravenously injected in normal mice (N=3), and the mice were dissected after one hour. The organs were all put in polyethylene bags with zipper (A-4, 0.04 mm, SEISANNIPPONSHA Ltd.), and radioactivity of the organs was measured using Wizard^2 gamma counter (PerkinElmer).

[3] = In vitro stability by thin-layer chromatography (TLC), with and without sodium ascorbate; assay type: physicochemical
Source text: The stability of ^211At-AAMT synthesized in Example 1 was compared in the presence and absence of sodium ascorbate using thin-layer chromatography (TLC).

[4] = system: human pancreatic cancer cell line (PANC-1); assay: Cellular uptake / accumulation in cancer cells (radiation dose remaining in the cells); assay type: cell-based
Method: A human pancreatic cancer cell line (PANC-1) was treated with ^211At-AAMT and cultured for a predetermined time. Then, the cells were washed to remove unincorporated ^211At-AAMT. The cellular uptake of ^211At-AAMT was measured from the radiation dose remaining in the cells.
Further, an effect of ascorbic acid on the cellular accumulation of ^211At-AAMT was also examined. The measurement result of the radiation dose in the human pancreatic cancer cell line in the absence and presence of ascorbic acid is shown in FIG. 5.

[5] = system: human pancreatic cancer cell line (PANC-1); assay: Cell-killing effect (cell survival rate); assay type: cell-based; settings: PANC-1 cells
Source text: 4. Examination of cell-killing effect of ^211At-AAMT A cell survival rate of the human pancreatic cancer cell line (PANC-1) administered with ^211At-AAMT under the same conditions as in Example 3 is shown in FIG. 6. […] On the other hand, the cellular uptake of ^211At-AAMT was reduced in the presence of the inhibitor BCH or methyltyrosine.

[6] = SPECT imaging in normal rats; assay type: in vivo, rats (Wister); settings: intravenous, 1 MBq, without ascorbic acid, 20 minutes to 1 hour
Method: Normal rats (Wister, 3 months old, male, 3 animals, body weight of 289.8±5.5 g) were intravenously injected with ^211At-AAMT (without ascorbic acid, 1 MBq), and SPECT imaging was performed after from 20 minutes to 1 hour. Imaging was performed using a gamma camera E-Cam (Siemens) (imaging time: 20 minutes, collimator: low energy all purpose, pixel size: 2.4 mm×2.4 mm×2.4 mm (SPECT), matrix: 128×128).

[7] = In vivo stability: TLC of blood and urine after intravenous injection in normal rats; settings: ascorbic acid 1% final concentration, after one hour
Method: ^211At-AAMT to which ascorbic acid was added at a final concentration of 1% was intravenously injected in normal rats, and, after one hour, blood and urine were collected and analyzed by thin-layer chromatography (TLC). As a thin layer plate, silica gel G60F254 (Merck KGaA) was used, and, as a development solvent, a mixture of butanol:water:acetic acid (4:1:1) was used (Nacalai Tesque, Inc.). The thin layer plate after development was analyzed by using a bioimaging analysis apparatus (Typhoon 7000, GE Healthcare) (FIG. 2). […] That is, it was shown that ^211At-AAMT to which ascorbic acid was added could stably exist in the living body without being metabolized or degraded.

[8] = system: human pancreas cell line PANC-1; assay: SPECT imaging in pancreatic cancer (PANC-1) transplanted mice; assay type: in vivo, Balb/c-nu/nu mice; settings: PANC-1 transplanted mice (two animals), intravenous, 1 MBq, with 1% ascorbic acid, after 10 minutes
Method: Balb/c-nu/nu mice (female, 5 weeks old) purchased from Japan SLC, Inc. were acclimated in a breeding space for one week. A human pancreas cell line PANC-1 (RIKEN cell bank), which was maintained in an RPMI 1640 medium (Sigma-Aldrich) supplemented with 10% fetal bovine serum (Gibco) and 1% antibiotics (100×, FUJIFILM Wako Pure Chemical Corp.), was adjusted to a concentration of 5×10^6 cells/100 μL. Subsequently, the cells were mixed with Matrigel (Growth Factor Reduced, BD) in a 1:1 ratio, and the mixture was transplanted to a subcutaneous region of the hinder back of a mouse using a syringe (FN syringe 27G, Terumo Corp.). Subsequently, after one-month follow-up observation, the mouse having a sufficiently large tumor size was used in the experiment. These pancreatic cancer transplanted mice (animal 1: 25.5 g, animal 2: 30.2 g) were intravenously injected with ^211At-AAMT (with 1% ascorbic acid, at a dose of 1 MBq each), and SPECT imaging was performed after 10 minutes. Imaging was performed using a gamma camera E-Cam (Siemens) (imaging time: 10 minutes, collimator: low energy all purpose, pixel size: 1.2 mm×1.2 mm, matrix: 256×256, zoom: 2-fold, energy window: 79±20%).

[9] = system: human pancreatic cancer cell line (PANC-1); assay: Administration to cancer-bearing mouse (tumor size and body weight); assay type: in vivo; settings: PANC-1 cancer-bearing mouse, intravenous, 0.6 MBq per mouse, 7 days after administration
Source text: A cancer-bearing mouse created by using the human pancreatic cancer cell line (PANC-1) was intravenously administered with ^211At-AAMT at a dose of 0.6 MBq per mouse. A change in the tumor size caused by the administration is shown in FIG. 8(A), while a change in the body weight of the cancer-bearing mouse is shown in FIG. 8(B).

[10] = Image analysis of in vivo localization in the normal rat using a gamma camera

SMILES	body weight change ([1]; 0.1 MBq or 1 MBq with 1% ascorbic acid versus control group)	number of melanoma nodules in the lung ([1]; 0.1 MBq or 1 MBq with 1% ascorbic acid versus control, fourteen days later)	accumulation in the stomach and the kidney [2]	time in which almost all of the compound was degraded ([3]; in the absence of sodium ascorbate)	stability over time ([3]; in the presence of sodium ascorbate)	time at which uptake reached the maximum value ([4]; PANC-1 cells)	increase of cellular uptake in the cancer cells by addition of ascorbic acid ([4]; PANC-1 cells, with versus without ascorbic acid)	accumulation in PANC-1 on addition of ascorbic acid ([4]; ascorbic acid 0.1% versus absence)	cell-killing effect (cell survival rate) ([5]; same conditions as Example 3)	cancer cell-killing activity on addition of ascorbic acid ([5]; with versus without ascorbic acid)	accumulation of radioactivity (SPECT) [6]	radioactive species detected in blood and urine [7]	visualization of the thyroid (SPECT) [8]	visualization of the tumor (SPECT) [8]	change in body weight [9]	change in tumor size [9]	excretion [10]	in vivo localization of radioactivity [10]	uptake of ^211At-AAMT under competition with the inhibitor ([4]; PANC-1 cells, competitor added (Comparative example))	cell survival rate with ^211At-AAMT in the presence of the inhibitor ([5]; competitor present)
CC(N)(Cc1ccc(O)c([211At])c1)C(=O)O (centres unmarked) [^211At-AAMT]	no difference in the body weight change	decreased more in the group with more doses	significantly reduced	about 40 minutes	could stably exist even after the lapse of seven or more hours	about 10 minutes	increased about four times	significantly increased	nearly all of the cancer cells could be killed	increased	accumulation of the radioactivity was observed in the thyroid and the stomach in all animals	only ^211At-AAMT was detected in both the blood and the urine, but free ^211At was not observed	the thyroid was not visualized	the tumors were clearly visualized in both cases	a substantial reduction of the body weight was not observed	a regression effect of the tumor was obtained	quick excretion of ^211At-AAMT by the kidney	accumulation of the radioactivity was observed in the kidney and its surrounding organs		
NC1(C(=O)O)CC2CCC1C2 (centres unmarked) [BCH, 2-aminobicyclo[2.2.1]heptane-2-carboxylic acid, reference compound]																			reduced	a significant reduction in the cell survival rate was not observed
